We go through four compounds from US20260347348A1, “JAK1/JAK2/TYK2 Inhibitors For Topical Treatment of Dermatological Diseases” (Hangzhou Highlightll Pharmaceutical Co., Ltd, priority 2022, published 2026).

Series [1] has as its target T1, TYK2 (Homo sapiens, UniProt P29597). Kind of series: TYK2 biochemical test (33P-ATP filter binding kinase assay). The note with it: room temperature, 2 hours. As for the experimental part:
(§1) The tests were conducted by Reaction Biology Corp, Malvern, PA (Anastassiadis et al. Nat Biotechnol. 2011; 29(11):1039-45). The step is briefly described as follows.
(§2) Basic reaction buffer: 20 mM Hepes (pH 7.5), 10 mM MgCl2, 1 mM EGTA, 0.02% Brij35, 0.02 mg/ml BSA, 0.1 mM Na3VO4, 2 mM DTT and 1% DMSO. The required cofactor was added to each kinase reaction respectively.
(§3) • 1. Preparing the designated substrate in the newly prepared basic reaction buffer; • 2. Transferring the required cofactor to the above matrix solution; • 3. Transferring the designated kinase to the substrate solution and mixing well slightly; • 4. Transferring a compound of formulae I-III in DMSO to the kinase reaction mixture with Acoustic technique (Echo550; nanoliter range), culturing for 20 minutes at room temperature; • 5. Introducing ^33P-ATP (specific activity: 10 μCi/μl) to the reaction mixture to trigger a reaction; • 6. Culturing at room temperature and conducting a kinase reaction for 2 hours; • 7. Plotting the reaction on P81 ion exchange paper; • 8. Testing the kinase activity with a filter binding assay.

The target in series [2] is T2, JAK1 (Homo sapiens, UniProt P23458). Kind of series: JAK1 biochemical test (33P-ATP filter binding kinase assay). The note with it: room temperature, 2 hours. As for the experimental part: as §1, §2, §3
T2 sequence (P23458 whole entry): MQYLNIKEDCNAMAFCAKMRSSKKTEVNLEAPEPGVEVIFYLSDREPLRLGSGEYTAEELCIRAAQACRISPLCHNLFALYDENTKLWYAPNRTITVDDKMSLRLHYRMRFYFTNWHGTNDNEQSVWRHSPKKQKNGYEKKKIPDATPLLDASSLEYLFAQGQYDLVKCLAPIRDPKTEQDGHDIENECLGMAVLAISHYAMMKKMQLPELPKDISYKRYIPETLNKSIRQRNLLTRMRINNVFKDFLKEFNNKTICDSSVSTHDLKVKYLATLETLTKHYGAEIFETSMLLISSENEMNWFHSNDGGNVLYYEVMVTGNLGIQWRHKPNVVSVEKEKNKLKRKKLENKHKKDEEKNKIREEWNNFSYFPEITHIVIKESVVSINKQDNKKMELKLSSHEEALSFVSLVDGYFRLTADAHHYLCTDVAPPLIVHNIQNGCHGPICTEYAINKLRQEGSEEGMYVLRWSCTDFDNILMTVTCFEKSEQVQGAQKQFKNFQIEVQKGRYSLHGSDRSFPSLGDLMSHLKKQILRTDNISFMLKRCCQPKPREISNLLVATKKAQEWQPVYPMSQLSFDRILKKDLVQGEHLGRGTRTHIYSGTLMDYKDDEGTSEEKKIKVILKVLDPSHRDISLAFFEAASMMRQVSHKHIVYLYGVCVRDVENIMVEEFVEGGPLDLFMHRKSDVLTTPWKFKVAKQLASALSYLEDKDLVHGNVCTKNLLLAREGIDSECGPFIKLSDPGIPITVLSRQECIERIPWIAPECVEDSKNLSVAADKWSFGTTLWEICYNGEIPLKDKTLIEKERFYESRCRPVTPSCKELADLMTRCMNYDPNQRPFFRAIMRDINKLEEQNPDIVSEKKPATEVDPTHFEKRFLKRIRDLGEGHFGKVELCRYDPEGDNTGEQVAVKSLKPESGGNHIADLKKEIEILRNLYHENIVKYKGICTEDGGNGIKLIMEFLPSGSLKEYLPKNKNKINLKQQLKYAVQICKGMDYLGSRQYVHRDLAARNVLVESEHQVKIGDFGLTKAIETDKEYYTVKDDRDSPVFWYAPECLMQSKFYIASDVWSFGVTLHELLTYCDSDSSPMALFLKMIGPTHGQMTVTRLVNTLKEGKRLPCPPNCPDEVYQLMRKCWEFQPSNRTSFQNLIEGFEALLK
The test system of another series is TYK2/JAK1/JAK2. Kind of series: TYK2/JAK1/JAK2 biochemical tests, comparative summary. As for the experimental part:
as §1, §2, §3

Series [3] concerns the target T1, TYK2. Kind of series: TYK2 cellular ELISA assay using NK92 cells (IL-12 and IL-18 stimulated IFNγ excretion). Format: cell-based. The note with it: IL-12 2 ng/ml and IL-18 5 ng/ml, 24 hours. Here is the method: Purpose: test cellular TYK2 activity using IL-12 and IL-18 stimulated IFNγ excretion assay in NK92 cells.
• 1. Replace NK92 cell media with IL-2 by media without IL-2, maintain overnight; • 2. Plate NK92 cells to 96-well plate at density of ~150,000 cell/well; • 3. Add different concentrations of test article to wells, maintain in incubator at 37° C. and 5% CO2 for 1 hour; • 4. Add IL-12 (final concentration: 2 ng/ml) and IL-18 (final concentration: 5 ng/ml) to stimulate for 24 hours in the above incubator; • 5. After 24 hours, centrifuge at 2000 rpm for 5 min, take the supernatant and analyze according to instructions of the ELISA kit.

In series [4] the target is T2, JAK1. In words: JAK1 cellular ELISA assay using PBMC cells (IL-6 stimulated STAT3 phosphorylation). Format: cell-based. The note with it: IL-6 100 ng/ml, 25 min. As for the experimental part: Purpose: test cellular JAK1 activity using the IL-6 stimulated STAT3 phosphorylation assay in PBMC cells.
• 1. Plate PBMC cells to 96-well plate at density of ~300,000 cell/well; • 2. Add different concentrations of test article to wells, maintain in incubator at 37° C. and 5% CO2 for 1 hour; • 3. Add IL-6 (final concentration: 100 ng/ml) to stimulate for 25 min in the above incubator; • 4. After stimulation, transfer the suspension to 1.5 mL tube, centrifuge at 200 g for 5 min, collect cells, add 100 μL 1× lysate, lyse on ice for 1 hour; • 5. Centrifuge at 4° C. and 12000 rpm for 10 min, take the supernatant and analyze according to instructions of the ELISA kit.

The nature of series [5]: Human liver microsome stability assay. The note with it: liver microsomes. Format: in vitro ADME. As for the experimental part:
The assay was conducted following procedures as below: • 1. Prepared 8 sample plates of 96-well plates, named as T0, T3, T6, T9, T15, T30, NCF30, BLANK. • 2. Dispensed 100 μl/well human microsomes to each plate. • 3. Dispensed 2 μL compound or control working solution/well to each plate (T0, T3, T6, T9, T15, T30, NCF30) except matrix blank and incubation plates at 37° C. for about 10 min. The final concentration of test compound was 1 μM. For T0, added 600 (μL/well) of cold stop solution immediately. • 4. Added 98 μL 100 mM potassium phosphate buffer/well to NCF30 plate, incubated at 37° C., start reaction. • 5. After pre-warming, dispensed NADPH regenerating system to 96-well plate as reservoir according to the plate map. Then added 98 μL/well to every plate (Blank, T30, T15, T9, T6, T3, T0) to start reaction. • 6. The reaction was stopped by the addition of 600 μl of cold stop solution at 0, 3, 6, 9, 15 and 30 minutes. Samples were shaked for 10 min and then centrifuged at 3220 g for 20 min. The supernatant was taken from each well and diluted with dilution solution before being analyzed by LC/MS/MS. • 7. […]
The slope value, k, was determined by linear regression of the natural logarithm of the remaining percentage of the parent drug vs. incubation time curve. The in vitro t1/2 was determined from the slope value: […]
Background: Microsomes from liver hold many membrane-bound enzymes, among them those of drug oxidation.

Series [6] in a line: Mini-pig dermal pharmacokinetic study. The conditions noted are these: for AUC(0-t): 15 mg/cm^2, topical ointment. In kind it is in vivo, Guangxi Bama mini-pigs. Here is the method: The aim of this study was to obtain the distribution of test articles in mini-pig after topical administration. Test articles were formulated as ointment and then applied to 2 female Guangxi Bama mini-pigs (8-12 kg) (Wujiang Tian yu Biological Technology). Briefly, total area estimated to be approximately 10% of the total body surface area were clipped free of hair before treatment using electric clippers. The test article was dosed evenly to the skin with 15 mg/cm^2 at 0 h, 8 h and 24 h. Test articles were removed before next dosing. Blood and skin samples were collected at 24 h (pre-dosing), 25 h, 28 h, 32 h, 48 h and 96 h. The blood was taken via peripheral vein of each animal into pre-chilled tube containing potassium (K2) EDTA as anticoagulant. Exposed skin was washed using ethanol and then wiped with dry cotton swab before skin sample collection. Eight samples of dosing skin were drilled with a biopsy punch (0.7 cm diameter) for each time point. Epidermis and dermis were separated and the eight samples from the same time point were pooled together and homogenized. All the above samples and homogenate were quantified by LC-MS/MS analysis.

The next series concerns the target JAK2 (Homo sapiens, UniProt O60674). Kind of series: JAK2 biochemical test (33P-ATP filter binding kinase assay). The conditions noted are these: room temperature, 2 hours. As for the experimental part: as §1, §2, §3
Another series concerns the target T3, JAK3 (Homo sapiens, UniProt P52333).
T3 sequence (P52333 1-1124): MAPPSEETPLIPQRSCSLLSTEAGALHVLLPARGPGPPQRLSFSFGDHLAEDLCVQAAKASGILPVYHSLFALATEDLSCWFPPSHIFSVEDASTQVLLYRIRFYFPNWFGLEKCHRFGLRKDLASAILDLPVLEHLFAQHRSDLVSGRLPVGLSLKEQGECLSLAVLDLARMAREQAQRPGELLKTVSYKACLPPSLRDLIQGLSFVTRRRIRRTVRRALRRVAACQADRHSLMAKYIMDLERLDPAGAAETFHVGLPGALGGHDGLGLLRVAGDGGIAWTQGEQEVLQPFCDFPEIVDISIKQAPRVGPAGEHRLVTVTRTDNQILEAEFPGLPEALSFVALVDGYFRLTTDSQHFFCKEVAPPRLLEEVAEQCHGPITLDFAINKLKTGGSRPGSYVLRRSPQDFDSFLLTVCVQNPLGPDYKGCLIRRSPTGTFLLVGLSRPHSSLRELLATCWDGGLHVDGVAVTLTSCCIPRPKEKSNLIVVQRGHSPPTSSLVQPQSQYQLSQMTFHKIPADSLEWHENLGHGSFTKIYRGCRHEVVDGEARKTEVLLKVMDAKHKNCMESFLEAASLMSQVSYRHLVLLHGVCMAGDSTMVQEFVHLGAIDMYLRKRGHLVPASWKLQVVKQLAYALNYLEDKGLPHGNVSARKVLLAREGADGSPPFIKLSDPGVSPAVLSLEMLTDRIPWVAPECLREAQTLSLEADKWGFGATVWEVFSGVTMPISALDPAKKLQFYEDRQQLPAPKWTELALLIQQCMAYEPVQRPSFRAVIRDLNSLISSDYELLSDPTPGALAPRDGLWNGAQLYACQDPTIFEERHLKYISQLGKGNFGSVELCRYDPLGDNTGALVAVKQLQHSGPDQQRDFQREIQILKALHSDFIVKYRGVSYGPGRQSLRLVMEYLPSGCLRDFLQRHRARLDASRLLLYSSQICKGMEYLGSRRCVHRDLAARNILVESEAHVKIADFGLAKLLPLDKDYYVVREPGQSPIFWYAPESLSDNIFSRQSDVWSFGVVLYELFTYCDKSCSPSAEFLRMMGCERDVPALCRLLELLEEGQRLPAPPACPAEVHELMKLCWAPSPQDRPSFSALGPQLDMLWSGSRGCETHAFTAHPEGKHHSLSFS
In words: JAK3 biochemical test (33P-ATP filter binding kinase assay). The conditions noted are these: room temperature, 2 hours. As for the experimental part: as §1, §2, §3

The next series deals with psoriasis. The note with it: cited from earlier work.
The conditions of series [7]: topical formulation, 1.2-37.6 g per application, twice a day; cited from earlier work.

Where two headings read alike, the source gives them in different places. Where only a bound is given, the exact number is not on record here.

Usually IC50 stands for the point on the concentration scale where inhibition reaches its midpoint. Low values mean inhibition by little substance, high ones a need for much substance. By half-life is commonly meant how long it takes for the measured level to halve. A word on the Cmax: it is the peak of the concentration-time curve.

T1 sequence (P29597 whole entry): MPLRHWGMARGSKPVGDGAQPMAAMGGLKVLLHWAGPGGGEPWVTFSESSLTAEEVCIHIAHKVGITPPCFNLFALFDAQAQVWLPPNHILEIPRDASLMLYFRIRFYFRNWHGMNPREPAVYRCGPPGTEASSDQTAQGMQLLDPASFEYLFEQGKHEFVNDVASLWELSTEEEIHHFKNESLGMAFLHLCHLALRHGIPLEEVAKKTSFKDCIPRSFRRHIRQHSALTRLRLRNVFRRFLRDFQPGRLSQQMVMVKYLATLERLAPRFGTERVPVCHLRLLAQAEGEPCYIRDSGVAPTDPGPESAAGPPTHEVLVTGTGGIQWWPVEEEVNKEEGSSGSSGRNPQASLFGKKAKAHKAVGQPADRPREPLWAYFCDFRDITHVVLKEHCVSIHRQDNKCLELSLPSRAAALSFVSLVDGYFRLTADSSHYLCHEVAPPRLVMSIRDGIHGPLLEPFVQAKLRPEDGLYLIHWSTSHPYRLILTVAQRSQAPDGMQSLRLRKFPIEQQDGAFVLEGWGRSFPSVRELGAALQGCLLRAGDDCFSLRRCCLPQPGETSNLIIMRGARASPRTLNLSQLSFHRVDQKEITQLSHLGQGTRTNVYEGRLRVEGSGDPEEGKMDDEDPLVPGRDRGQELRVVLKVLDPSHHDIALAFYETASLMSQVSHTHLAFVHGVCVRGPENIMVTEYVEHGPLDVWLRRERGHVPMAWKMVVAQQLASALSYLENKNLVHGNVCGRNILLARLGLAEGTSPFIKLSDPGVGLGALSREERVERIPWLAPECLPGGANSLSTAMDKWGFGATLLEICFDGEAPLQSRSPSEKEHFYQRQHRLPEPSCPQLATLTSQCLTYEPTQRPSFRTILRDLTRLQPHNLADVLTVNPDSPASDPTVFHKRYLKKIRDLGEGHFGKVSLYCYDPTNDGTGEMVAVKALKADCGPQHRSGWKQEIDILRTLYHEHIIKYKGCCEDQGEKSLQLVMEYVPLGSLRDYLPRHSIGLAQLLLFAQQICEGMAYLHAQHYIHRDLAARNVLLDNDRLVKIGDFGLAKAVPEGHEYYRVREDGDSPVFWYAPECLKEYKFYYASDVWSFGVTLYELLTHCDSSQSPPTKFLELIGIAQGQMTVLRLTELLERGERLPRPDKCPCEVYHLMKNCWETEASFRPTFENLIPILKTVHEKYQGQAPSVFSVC
JAK2, sequence (O60674 whole entry): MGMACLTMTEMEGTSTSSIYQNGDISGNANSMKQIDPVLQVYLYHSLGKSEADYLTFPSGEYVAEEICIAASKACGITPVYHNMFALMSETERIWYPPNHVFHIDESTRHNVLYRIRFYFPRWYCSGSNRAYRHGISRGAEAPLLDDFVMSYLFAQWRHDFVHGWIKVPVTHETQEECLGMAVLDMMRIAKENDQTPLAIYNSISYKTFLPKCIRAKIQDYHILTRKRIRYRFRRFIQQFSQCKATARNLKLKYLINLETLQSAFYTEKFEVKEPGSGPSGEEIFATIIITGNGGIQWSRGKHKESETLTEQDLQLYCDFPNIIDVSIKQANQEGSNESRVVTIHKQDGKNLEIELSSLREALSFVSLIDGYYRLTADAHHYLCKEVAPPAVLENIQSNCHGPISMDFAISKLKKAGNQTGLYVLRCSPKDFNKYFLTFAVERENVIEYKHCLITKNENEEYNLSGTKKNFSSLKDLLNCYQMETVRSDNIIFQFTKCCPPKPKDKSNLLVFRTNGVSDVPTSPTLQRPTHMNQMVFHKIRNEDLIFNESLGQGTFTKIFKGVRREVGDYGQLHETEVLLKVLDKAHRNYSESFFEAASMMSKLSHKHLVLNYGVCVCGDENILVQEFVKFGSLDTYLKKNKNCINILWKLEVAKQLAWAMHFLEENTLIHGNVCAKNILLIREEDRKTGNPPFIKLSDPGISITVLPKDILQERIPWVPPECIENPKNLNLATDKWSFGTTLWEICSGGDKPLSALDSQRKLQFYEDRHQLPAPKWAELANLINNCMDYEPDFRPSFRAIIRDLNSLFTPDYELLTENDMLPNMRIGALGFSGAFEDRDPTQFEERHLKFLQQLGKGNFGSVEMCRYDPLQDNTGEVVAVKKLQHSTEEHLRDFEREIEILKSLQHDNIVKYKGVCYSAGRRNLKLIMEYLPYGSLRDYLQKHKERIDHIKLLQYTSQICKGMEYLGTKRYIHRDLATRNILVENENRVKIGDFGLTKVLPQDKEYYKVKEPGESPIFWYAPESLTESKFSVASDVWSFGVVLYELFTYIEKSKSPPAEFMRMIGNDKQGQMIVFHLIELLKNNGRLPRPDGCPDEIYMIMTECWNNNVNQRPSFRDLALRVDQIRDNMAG

As to `Cc1cnc(Nc2cnn(C)c2)nc1-c1cnn([C@H](CC#N)C2CCCC2)c1` [Compound 4, (R)-3-cyclopentyl-3-(4-(5-methyl-2-((1-methyl-1H-pyrazol-4-yl)amino)pyrimidin-4-yl)-1H-pyrazol-1-yl) propanenitrile], the half-inhibitory concentration (IC50) on TYK2 [1] was < 1 nM; at JAK1 [2], < 1 nM; against TYK2 [3] it was < 10 nM; at JAK1 [4], < 500 nM. Besides, the “TYK2/JAK1/JAK2 inhibition (in words)” value with TYK2/JAK1/JAK2 was “potent TYK2/JAK1/JAK2 inhibitors”. In series [5], this compound showed a half-life at 1 µM of 21 min. Moreover, in [5] (read-out: in vitro CLint(mic)), the microsomal CLint at 1 µM was found to be 65.9 µL/min/mg. The AUC(0-t) came out at 0.103 µg·h/mL in [6] (minipig, plasma, topical or ocular, 15 mg/cm^2 at 0 h, 8 h and 24 h, plasma, read-out: Plasma AUC0-last); 517 µg·h/mL in [6] (minipig, topical or ocular, 15 mg/cm^2 at 0 h, 8 h and 24 h, dermis, read-out: Dermis AUC0-last); 3520 µg·h/mL in series [6] (minipig, topical or ocular, 15 mg/cm^2 at 0 h, 8 h and 24 h, epidermis, read-out: Epidermis AUC0-last). Moreover, the Kp in [6] (minipig, topical or ocular, topical ointment, 15 mg/cm^2 at 0 h, 8 h and 24 h, read-out: Dermis/Plasma ratio (AUC)) came out at 5020. The “systemic exposure and skin distribution (in words)” value in series [6] (topical administration) is “minimal systemic exposure and enrichment in dermis and epidermis”.
With `CCS(=O)(=O)N1CC(CC#N)(n2cc(-c3nc(Nc4cnn(C)c4)ncc3C)cn2)C1` [Compound 18, 2-(1-(ethylsulfonyl)-3-(4-(5-methyl-2-((1-methyl-1H-pyrazol-4-yl)amino)pyrimidin-4-yl)-1H-pyrazol-1-yl)azetidin-3-yl)acetonitrile], the IC50 is < 1 nM on TYK2 [1]; < 1 nM at JAK1 [2]; < 1 nM at JAK2; > 10 nM at JAK3; < 500 nM against JAK1 [4]. Also, the “TYK2/JAK1/JAK2 inhibition (in words)” value in the series on TYK2/JAK1/JAK2 was “potent TYK2/JAK1/JAK2 inhibitors”.
As for `CNC(=O)c1nnc(NC(=O)C2CC2)cc1Nc1cccc(-c2ncn(C)n2)c1OC` [deucravacitinib], the “Phase 2 and Phase 3 results in patients with psoriasis” value with psoriasis is “positive Phase 2 and Phase 3 results”.
With `N#CC[C@H](C1CCCC1)n1cc(-c2ncnc3[nH]ccc23)cn1` [ruxolitinib], the Cmax in [7] is 449 ± 883 nM.
